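Dose response: 5 concentrations. Exposure: 48 h. Format: 96-well plates. Endpoint: linear interpolation; highest concentration if not reached. TGI: concentration producing complete growth inhibition.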
Tests used:
Test in all cases: DTP human tumour cell line panel, 48 h
[1] = tested on: UO-31 renal
[2] = tested on: OVCAR-5 ovarian
[3] = tested on: COLO 205 colon
[4] = tested on: SNB-75 CNS
[5] = tested on: OVCAR-4 ovarian
[6] = tested on: NCI-H23 lung
[7] = tested on: A549 NSCLC
[8] = tested on: HT29 colon
[9] = tested on: IGROV1 ovarian
[10] = tested on: HCT-15 colon
[11] = tested on: SF-268 CNS
[12] = tested on: CCRF-CEM leukemia
[13] = tested on: HCT-116 colon
[14] = tested on: SK-OV-3 ovarian
[15] = tested on: RPMI-8226 leukemia
[16] = tested on: 786-0 renal
[17] = tested on: NCI-H460 lung
[18] = tested on: MOLT-4 leukemia
[19] = tested on: NCI-H226 lung
[20] = tested on: MDA-MB-231 breast
[21] = tested on: HOP-92 NSCLC
[22] = tested on: UACC-62 melanoma
[23] = tested on: SK-MEL-28 melanoma
[24] = tested on: DU-145 prostate
[25] = tested on: SF-539 CNS
[26] = tested on: M14 melanoma
[27] = tested on: HOP-62 NSCLC
[28] = tested on: SNB-19 CNS
[29] = tested on: NCI/ADR-RES ovarian
[30] = tested on: A498 renal
[31] = tested on: T-47D breast
[32] = tested on: SK-MEL-2 melanoma
[33] = tested on: MDA-MB-435
[34] = tested on: EKVX NSCLC
[35] = tested on: OVCAR-8 ovarian
[36] = tested on: OVCAR-3 ovarian
[37] = tested on: UACC-257 melanoma
[38] = tested on: HCC-2998 colon
[39] = tested on: SK-MEL-5 melanoma
[40] = tested on: SF-295 CNS
[41] = tested on: RXF 393 renal
[42] = tested on: TK-10 renal
[43] = tested on: ACHN renal
[44] = tested on: SN12C renal
[45] = tested on: LOX IMVI melanoma
[46] = tested on: MCF7 breast
[47] = tested on: K-562 leukemia
[48] = tested on: SW-620 colon
[49] = tested on: MDA-N
[50] = tested on: U251 CNS
[51] = tested on: NCI-H522 lung
[52] = tested on: PC-3 prostate
[53] = tested on: KM12 colon
[54] = tested on: HS 578T breast
[55] = tested on: HL-60(TB) leukemia

Measured: TGI

CC(=O)Oc1c(C)cc2c(c1C)C(C)CN2C(C)=O (stereo not given)
> 100 µM: all assays above
